Values of other authors as cited in patent US20260144779A1, “MODIFIED RELEASE PHARMACEUTICAL FORMULATIONS COMPRISING DEFERIPRONE” (CHIESI FARMACEUTICI S.P.A., priority 2022, published 2026).

Details: in vivo

Question: With `Cc1c(O)c(=O)ccn1C` [Deferiprone, 3-hydroxy-1,2-dimethylpyridin-4-one] as the compound, how does the Half-life read?
Answer: Its Half-life is 2 to 3 h.
